Measured values from patent publication US8394803B2, “Gyrase inhibitors and uses thereof” (Vertex Pharmaceuticals Incorporated, priority 2005, dated 2013).
Values after ≈ are worked out from the molar mass of the structure shown. Read-outs that look alike come from different tables or passages of the source.

How the values were obtained:
E. coli Gyrase = E. coli Gyrase (Escherichia coli, UniProt P0AES6); experiment: DNA Gyrase ATPase assay (E. coli Gyrase Ki); type: biochemical
Method: The ATP hydrolysis activity of DNA gyrase was measured by coupling the production of ADP through pyruvate kinase/lactate dehydrogenase to the oxidation of NADH. This method has been described previously (Tamura and Gellert, 1990, J. Biol. Chem., 265, 21342).
ATPase assays were carried out at 30° C. in buffered solutions containing 100 mM TRIS pH 7.6, 1.5 mM MgCl2, 150 mM KCl. The coupling system contains (final concentrations) 2.5 mM phosphoenol pyruvate, 200 μM nicotinamide adenine dinucleotide (NADH), 1 mM DTT, 30 ug/ml pyruvate kinase, and 10 ug/ml lactate dehydrogenase. 40 nanomolar enzyme and a DMSO solution of the inhibitor to a final concentration of 4% was added and the reaction mixture was allowed to incubate for 10 minutes at 30° C. The reaction was then started by the addition of ATP to a final concentration of 0.9 mM and the rate of NADH disappearance at 340 nanometers was measured over the course of 10 minutes. The Ki values were determined from rate versus concentration profiles.
The compound numbers correspond to the compound numbers in Table 2. Compounds having an activity designated as “A” provided a Ki inhibition value equal to or above 0.100 micromolar. Compounds having an activity designated as “B” provided a Ki inhibition value between 0.050 micromolar and 0.100 micromolar. […] The term “ND” means no data.

Streptococcus pneumoniae = experiment: Susceptibility testing in liquid media (MIC), S. pneumoniae; type: cell-based; details: 35° C. overnight, read-out: S. pneumoniae MIC range
Method: (§1) Compounds of this invention were also tested for antimicrobial activity by susceptibility testing in liquid media. Such assays were performed within the guidelines of the latest NCCLS document governing such practices: “M7-A5 Methods for dilution Antimicrobial Susceptibility Tests for Bacteria that Grow Aerobically; Approved Standard—Fifth Edition (2000)”. Other publications such as “Antibiotics in Laboratory Medicine” (Edited by V. Lorian, Publishers Williams and Wilkins, 1996) provide essential practical techniques in laboratory antibiotic testing. Essentially, several discrete bacterial colonies of Staphylococcus aureus, Streptococcus pneumoniae, Haemophilus influenzae, or Enterococcus faecalis (3 to 7) from a freshly streaked plate were transferred to an appropriate rich broth medium such as MHB, and supplemented where appropriate for the more fastidious organisms. This was grown overnight to high density followed by a 1 or 2-thousand-fold dilution to give an inoculation density of between 5×10^5 and 5×10^6 CFU per mL. Alternatively, the freshly picked colonies can be incubated at 37° C. for about 4 to 8 hours until the culture equals or exceeds a turbidity of a 0.5 McFarland standard (approximately 1.5×10^8 cells per mL) and diluted to give the same CFU per mL as above. In a more convenient method, the inoculum was prepared using a commercially available mechanical device (the BBL PROMPT System) that involves touching five colonies directly with a wand, containing crosshatch grooves at its bottom, followed by suspension of the bacteria in an appropriate volume of saline. Dilution to the appropriate inoculum cell density was made from this cell suspension. The broth used for testing consists of MHB supplemented with 50 mg per L of Ca^2+ and 25 mg per L of Mg^2+. Standard dilution panels of control antibiotics were made and stored as in the NCCLS standard M7-A5, the dilution range typically being in the 128 μg per mL to […] (by 2-fold serial dilution). The test compounds were dissolved and diluted fresh for experimentation on the same day; the same or similar ranges of concentration as above being used. The test compounds and controls were dispensed into a multiwell plate and test bacteria added such that the final inoculation was approximately 5×10^4 CFU per well and the final volume was 100 μL. The plates were incubated at 35° C. overnight (16 to 20 hours) and checked by eye for turbidity or quantitated with a multiwell plate reader. […] Such determinations were also compared to the appropriate tables contained in the above two publications to ensure that the range of antibacterial activity is within the acceptable range for this standardized assay.
(§2) The compound numbers correspond to the compound numbers in Table 2.

S. aureus TopoIV = S. aureus TopoIV (Staphylococcus aureus, UniProt P0C1S7); experiment: DNA Topo IV ATPase assay (S. aureus TopoIV Ki); type: biochemical; details: 30° C., read-out: S. aureus Topo IV Ki Inhibition Ranges (Activity)
Method: DNA Topo IV ATPase Assay:
The conversion of ATP to ADP by TopoIV enzyme was coupled to the conversion of NADH to NAD+ and measured by the change in absorbance at 340 nm. Topo4 was incubated with inhibitor (4% DMSO final) in buffer for 10 minutes at 30° C. Reaction was initiated with ATP and rates were monitored continuously for 20 minutes at 30° C. on a Molecular Devices SpectraMAX plate reader. The inhibition constant, Ki, was determined from plots of rate vs. [Inhibitor] fit to the Morrison Equation for tight binding inhibitors.
S. aureus TopoIV Buffer: 100 mM Tris 7.5, 2 mM MgCl2, 200 mM K●Glutamate, 2.5 mM phosphoenol pyruvate, 0.2 mM NADH, 1 mM DTT, 4.25 μg/mL linearized DNA, 50 μg/mL BSA, 30 μg/mL pyruvate kinase, and 10 μg/mL lactate dehyrodgenase (LDH).
The compound numbers correspond to the compound numbers in Table 2. Compounds having an activity designated as “A” provided a Ki inhibition value equal to or above 0.500 micromolar. […] The term “ND” means no data.

Haemophilus influenzae = experiment: Susceptibility testing in liquid media (MIC), H. influenzae; type: cell-based; details: 35° C. overnight, read-out: H. influenzae MIC range
Method: as §1, §2

Enterococcus faecalis = experiment: Susceptibility testing in liquid media (MIC), E. faecalis; type: cell-based; details: 35° C. overnight, read-out: E. faecalis MIC range
Method: as §1, §2

Staphylococcus aureus = experiment: Susceptibility testing in liquid media (MIC), S. aureus; type: cell-based; details: 35° C. overnight, read-out: S. aureus MIC range
Method: as §1, §2

[1] = ATPase assay, 30° C., 0.9 mM ATP, read-out: E. coli Gyrase Ki Inhibition Ranges (Activity)

S. aureus TopoIV, sequence (P0C1S7 whole entry): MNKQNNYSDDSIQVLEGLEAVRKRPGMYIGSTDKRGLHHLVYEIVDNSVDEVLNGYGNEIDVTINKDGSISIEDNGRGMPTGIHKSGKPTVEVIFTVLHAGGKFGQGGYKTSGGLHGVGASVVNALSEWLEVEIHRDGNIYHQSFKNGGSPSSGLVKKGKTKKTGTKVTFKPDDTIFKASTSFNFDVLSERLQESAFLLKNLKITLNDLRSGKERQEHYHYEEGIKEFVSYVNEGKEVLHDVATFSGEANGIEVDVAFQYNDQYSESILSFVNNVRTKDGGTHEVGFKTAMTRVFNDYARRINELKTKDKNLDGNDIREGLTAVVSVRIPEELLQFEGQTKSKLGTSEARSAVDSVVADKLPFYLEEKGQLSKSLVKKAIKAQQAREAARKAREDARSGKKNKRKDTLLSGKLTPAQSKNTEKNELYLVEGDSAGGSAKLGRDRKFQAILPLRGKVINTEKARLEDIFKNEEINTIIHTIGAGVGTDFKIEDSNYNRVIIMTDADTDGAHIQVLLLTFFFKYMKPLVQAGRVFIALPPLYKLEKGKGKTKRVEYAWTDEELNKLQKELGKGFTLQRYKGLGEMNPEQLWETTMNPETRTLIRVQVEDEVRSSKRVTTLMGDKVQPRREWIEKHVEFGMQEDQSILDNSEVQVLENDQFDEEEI
S. aureus TopoIV, sequence (P0C1U9 whole entry partner): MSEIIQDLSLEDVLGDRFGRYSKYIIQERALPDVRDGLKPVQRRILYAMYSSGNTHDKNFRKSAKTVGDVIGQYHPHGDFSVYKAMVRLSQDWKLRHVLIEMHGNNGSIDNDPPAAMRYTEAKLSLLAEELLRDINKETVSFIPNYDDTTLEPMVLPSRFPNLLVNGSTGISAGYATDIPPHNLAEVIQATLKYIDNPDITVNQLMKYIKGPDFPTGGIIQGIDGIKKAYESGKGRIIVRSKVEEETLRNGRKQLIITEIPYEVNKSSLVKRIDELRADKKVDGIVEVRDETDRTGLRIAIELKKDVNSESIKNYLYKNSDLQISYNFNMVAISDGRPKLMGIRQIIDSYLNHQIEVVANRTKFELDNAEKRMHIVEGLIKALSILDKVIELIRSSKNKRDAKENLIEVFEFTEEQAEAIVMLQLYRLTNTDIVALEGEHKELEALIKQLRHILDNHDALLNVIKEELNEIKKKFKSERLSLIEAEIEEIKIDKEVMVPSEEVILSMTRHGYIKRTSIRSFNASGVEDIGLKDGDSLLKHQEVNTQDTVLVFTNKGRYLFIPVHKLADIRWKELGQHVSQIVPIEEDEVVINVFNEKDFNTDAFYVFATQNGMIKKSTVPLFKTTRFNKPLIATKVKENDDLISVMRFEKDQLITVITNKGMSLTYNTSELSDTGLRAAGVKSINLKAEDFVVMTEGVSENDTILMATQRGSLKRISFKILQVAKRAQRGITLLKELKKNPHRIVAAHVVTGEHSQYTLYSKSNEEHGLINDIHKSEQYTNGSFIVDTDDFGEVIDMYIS

| Compound | Ki (E. coli Gyrase) | MIC (Streptococcus pneumoniae) | Ki (S. aureus TopoIV) | MIC (Haemophilus influenzae) | MIC (Enterococcus faecalis) | MIC (Staphylococcus aureus) | Ki (E. coli Gyrase; [1]) |
| --- | --- | --- | --- | --- | --- | --- | --- |
| CCNC(=O)Nc1nc2cc(C3CCN(C)C(=O)C3)cc(-c3ncccc3F)c2[nH]1 (centres unmarked) [Compound I-13] | < 50 nM | < 1 µg/mL | ≤ 250 nM | > 7 µg/mL | < 1 µg/mL | 1 to 7 µg/mL (≈ 2.44 to 17.1 µM) |  |
| CCNC(=O)Nc1nc2cc(C(=O)O)cc(-c3ncccc3F)c2[nH]1 [Compound I-2] |  | > 7 µg/mL |  | > 7 µg/mL | > 7 µg/mL | > 7 µg/mL | > 100 nM |
| CCNC(=O)Nc1nc2cc(C(C)CC(=O)N(C)C)cc(-c3ncccc3F)c2[nH]1 (centres unmarked) [Compound I-19] | > 100 nM | 1 to 7 µg/mL (≈ 2.42 to 17 µM) | ≥ 500 nM | > 7 µg/mL | 1 to 7 µg/mL (≈ 2.42 to 17 µM) | > 7 µg/mL |  |
| CCNC(=O)Nc1nc2cc(OC)cc(-n3cccn3)c2[nH]1 [Compound I-1] |  | 1 to 7 µg/mL (≈ 3.33 to 23.3 µM) |  | > 7 µg/mL | > 7 µg/mL | > 7 µg/mL | 50 to 100 nM |
| CCNC(=O)Nc1nc2cc(NCc3ccccn3)cc(-c3ncccn3)c2[nH]1 [Compound I-14] | 50 to 100 nM | < 1 µg/mL | ≥ 500 nM | > 7 µg/mL | 1 to 7 µg/mL (≈ 2.57 to 18 µM) | > 7 µg/mL |  |
| CCNC(=O)Nc1nc2cc(C3=CC(=O)N(Cc4ccccc4)CC3)cc(-n3cccn3)c2[nH]1 [Compound I-18] | < 50 nM | < 1 µg/mL | ≤ 250 nM | > 7 µg/mL | < 1 µg/mL | < 1 µg/mL |  |
| CCNC(=O)Nc1nc2cc(/C(C)=C/C(=O)N(C)C)cc(-c3ncccc3F)c2[nH]1 [Compound I-8] | 50 to 100 nM | < 1 µg/mL | ≤ 250 nM | > 7 µg/mL | 1 to 7 µg/mL (≈ 2.44 to 17.1 µM) | > 7 µg/mL |  |
| CCNC(=O)Nc1nc2cc(/C(C)=C/C(=O)NC)cc(-c3ncccc3F)c2[nH]1 [Compound I-10] | < 50 nM | < 1 µg/mL | ≤ 250 nM | > 7 µg/mL | < 1 µg/mL | > 7 µg/mL |  |
| CCNC(=O)Nc1nc2cc(C#N)cc(-c3ncccc3F)c2[nH]1 [Compound I-4] |  | < 1 µg/mL |  | > 7 µg/mL | 1 to 7 µg/mL (≈ 3.08 to 21.6 µM) | > 7 µg/mL | 50 to 100 nM |
| CCNC(=O)Nc1nc2cc(F)cc(-c3ncccn3)c2[nH]1 [Compound I-15] | < 50 nM | 1 to 7 µg/mL (≈ 3.33 to 23.3 µM) | ≥ 500 nM | > 7 µg/mL | 1 to 7 µg/mL (≈ 3.33 to 23.3 µM) | > 7 µg/mL |  |
| CCNC(=O)Nc1nc2cc(C(C)CC(=O)NC)cc(-c3ncccc3F)c2[nH]1 (centres unmarked) [Compound I-9] | > 100 nM | 1 to 7 µg/mL (≈ 2.51 to 17.6 µM) | ≥ 500 nM | > 7 µg/mL | > 7 µg/mL | > 7 µg/mL |  |
| CCNC(=O)Nc1nc2cc(C(=O)OC)cc(-c3ncccc3F)c2[nH]1 [Compound I-7] |  | 1 to 7 µg/mL (≈ 2.8 to 19.6 µM) |  | > 7 µg/mL | 1 to 7 µg/mL (≈ 2.8 to 19.6 µM) | > 7 µg/mL | < 50 nM |
| CCNC(=O)Nc1nc2cc(C3CCN(Cc4ccccc4)C(=O)C3)cc(-n3cccn3)c2[nH]1 (centres unmarked) [Compound I-17] | > 100 nM | < 1 µg/mL | ≤ 250 nM | > 7 µg/mL | 1 to 7 µg/mL (≈ 2.19 to 15.3 µM) | 1 to 7 µg/mL (≈ 2.19 to 15.3 µM) |  |
| CCNC(=O)Nc1nc2cc(C#N)c(F)c(-n3cccn3)c2[nH]1 [Compound I-16] | < 50 nM | 1 to 7 µg/mL (≈ 3.19 to 22.3 µM) | ≥ 500 nM | > 7 µg/mL | > 7 µg/mL | > 7 µg/mL |  |
| CCNC(=O)Nc1nc2cc(N3CCN(C(C)=O)CC3)cc(-c3ncccn3)c2[nH]1 [Compound I-5] |  | < 1 µg/mL |  | > 7 µg/mL | 1 to 7 µg/mL (≈ 2.45 to 17.1 µM) | > 7 µg/mL | < 50 nM |
| CCNC(=O)Nc1nc2cc(N3CCCC3=O)cc(-c3ncccn3)c2[nH]1 [Compound I-6] |  | < 1 µg/mL |  | > 7 µg/mL | 1 to 7 µg/mL (≈ 2.74 to 19.2 µM) | > 7 µg/mL | < 50 nM |
| CCNC(=O)Nc1nc2cc(C(=O)NC)cc(-c3ncccc3F)c2[nH]1 [Compound I-3] |  | < 1 µg/mL |  | > 7 µg/mL | < 1 µg/mL | > 7 µg/mL | < 50 nM |
